Test results as given in patent US4247702A, “Method of stabilizing 4-methyl-5-(2'chloroethyl)-thiazol” (Pharmaceutical Licences Company Ltd., priority 1978, dated 1981).

Test: Chloride analysis of decomposition deposit of Clomethiazol-Base kept 7 days at 70° C.
Assay type: physicochemical
Conditions: deposit after 7 days at 70° C., washed with benzene
Experimental: Freshly distilled Clomethiazol-Base was kept for 7 days at 70° C., and the precipitated brown deposit (decomposition products) was washed with benzene and analyzed.

## Cc1ncsc1CCCl [CMT-Base, 4-Methyl-5-(2'-Chlorethyl)-thiazol]
  total chloride greater than the sum of free chloride and chloride of occluded CMT-Base and CMT-HCl (chloride surplus): 17%
